Test results as given in PMC11083148, “Structure–Activity Relationship Studies on Highly Functionalized Pyrazole Hydrazones and Amides as Antiproliferative and Antioxidant Agents” (International Journal of Molecular Sciences, 2024).
“And” between values parts separate entries of the source, which are not always exact repeats. Equal entries are not always repeated.

How the values were obtained:
[1] = test system: A549; test: MTT assay, antiproliferative activity; type: cell-based; conditions: Homo sapiens, 48h, read-out: Mean Growth Percentage
Protocol: (§1) Pyrazole acylhydrazones 10–13 and amides 14–22 were tested by MTT assay to evaluate their antiproliferative and cytotoxicity properties against a panel of eight tumor cell lines and normal fibroblasts.
(§2) All reagents were purchased from EuroClone, Milan, Italy). The following cell lines were used for MTT assays: SKOV-3 (ovarian adenocarcinoma, ATCC, Manassas, VA, USA); MCF-7 (breast adenocarcinoma, Biologic Bank and Cell Factory, IRCCS Policlinico San Martino, Genoa, Italy); Hep-G2 (hepatocellular carcinoma, ATCC, Manassas, VA, USA); SK-MEL28 (skin melanoma, Biologic Bank and Cell Factory, IRCCS Policlinico San Martino, Genoa, Italy), GM-6114 (embryonic human fibroblast, ATCC, Manassas, VA, USA); MDA-MB231 (breast adenocarcinoma, Biologic Bank and Cell Factory, IRCCS Policlinico San Martino, Genoa, Italy); HeLa (cervical adenocarcinoma, Biologic Bank and Cell Factory, IRCCS Policlinico San Martino, Genoa, Italy); SK-BR3 (breast andenocarcinoma, Biologic Bank and Cell Factory, IRCCS Policlinico San Martino, Genoa, Italy); A549 (lung carcinoma, Biologic Bank and Cell Factory, IRCCS Policlinico San Martino, Genoa, Italy); HUVEC (Human Umbilical Vein Endothelial Cells, ATCC, Manassas, VA, USA). All cell lines were grown in their medium with 10% FBS, 2 mM Glutamine, and 1% penstrep and incubated at 37 °C in 5% CO2 in a humidified environment. The cell lines were plated in 96-well plates at an adequate number to reach 80–90% confluence at the end of the assay. 16 h after cell plating, a 10 mM DMSO stock solution of the compounds was diluted in growth medium and added at a final working concentration of 10 μM. After 48h of incubation, a 2 mg/mL PBS solution of MTT (3-(4,5-dimethyl-2-thiazolyl)-2,5-diphenyl-2H-tetrazolium bromide) was added (30 μL/well). After 4h, the supernatant was removed, and the Formazan precipitates were dissolved in DMSO (100 μL/well). The 96-well plates were incubated for 20 min, and absorbance was measured at 570 nm using a plate reader. The results are expressed as a percentage ratio over control samples (100%) in which the cells were incubated with the same amount of DMSO but without compounds. Each value is the mean of three independent experiments run in six replicates.

[2] = test system: Hep-G2; test: MTT assay, antiproliferative activity; type: cell-based; conditions: Homo sapiens, HepG2, 48h
Protocol: as §1, §2

[3] = test system: MDA-MB231; test: MTT assay, antiproliferative activity; type: cell-based; conditions: Homo sapiens, MDA-MB-231, 48h
Protocol: as §1, §2

[4] = test system: SK-BR3; test: MTT assay, antiproliferative activity; type: cell-based; conditions: Homo sapiens, SK-BR-3, 48h
Protocol: as §1, §2

[5] = test system: HeLa; test: MTT assay, antiproliferative activity; type: cell-based; conditions: Homo sapiens, 10 µM, 48h, read-out: Mean Growth Percentage
Protocol: as §1, §2
(§3) Each IC50 value is the mean of three independent experiments run in duplicate.

[6] = test system: MCF7; test: MTT assay, antiproliferative activity; type: cell-based; conditions: Homo sapiens, 10 µM, 48h
Protocol: as §1, §2, §3

[7] = test system: SKMEL28; test: MTT assay, antiproliferative activity; type: cell-based; conditions: Homo sapiens, SK-MEL-28, 10 µM, 48h
Protocol: as §1, §2, §3

[8] = test system: SKOV3; test: MTT assay, antiproliferative activity; type: cell-based; conditions: Homo sapiens, SK-OV-3, 10 µM, 48h
Protocol: as §1, §2, §3

[9] = test system: GM-6114; test: MTT assay, cytotoxicity on normal fibroblasts; type: cell-based; conditions: human, 48 h, 10 µM
[10] = test system: washed platelets; test: Platelet aggregation (thrombin-induced, Born's method); type: cell-based; conditions: Homo sapiens, 0.1 U/mL thrombin, mean ± SD, read-out: IC50 Aggregation inhibition
Protocol: (§4) The antioxidant properties of acylhydrazones 10–13 and pyrazolyl amides 14–22 were tested by evaluating their inhibition of platelet aggregation and ROS production (Figure 3, Table S1). In fact, human platelets could represent a fast and low-cost biological model to screen compounds as anticancer, anti-inflammatory, and antiaggregating agents. Moreover, ROS production inhibition, related to human platelet aggregation, could provide a good indication of the anti-inflammatory and antioxidant properties of the newly synthesized compounds [47, 50, 51, 52]. N-acetylcysteine (NAC) and acetyl salicylic acid (ASA) were used as reference drugs for antioxidant and antiaggregant activities, respectively.
(§5) Freshly drawn venous blood from healthy volunteers from “Centro Trasfusionale” (IRCCS Policlinico San Martino, Genoa, Italy) was collected into a 130 mM aqueous trisodium citrate anticoagulant solution (9:1). The donors claimed to not have taken drugs known to interfere with platelet function during the two weeks prior to blood collection and gave their informed consent. Whole blood was centrifuged at 100× g for 20 min to afford platelet-rich plasma that was then spun at 1100× g for 15 min. The obtained pellet was washed once with a pH 5.2 ACD solution (75 mM trisodium citrate, 42 mM citric acid, and 136 mM glucose), centrifuged at 1100× g for 15 min, and then re-suspended in pH 7.4 Hepes buffer (145 mM NaCl, 5 mM KCl, 1 mM MgSO4, 10 mM glucose, and 10 mM HEPES).
Thrombin was purchased from Sigma-Aldrich/Merck Millipore. A DMSO solution of compounds 10–22 was diluted in saline immediately before each experiment and added to the washed platelets (3.0 × 10^8/mL) at 37 °C. After 3 min, 0.1 U/mL thrombin was added, and platelet aggregation was quantified according to Born’s method using a Bio-Data Aggregometer (Bio-Data Corporation, Horsham, PA, USA). The IC50 values were calculated as detailed above.

[11] = test system: washed platelets; test: ROS assay in platelets (DCFH-DA, thrombin-stimulated); type: cell-based, human; conditions: Homo sapiens, Platelet, 0.1 U/mL thrombin, mean ± SD, read-out: IC50 ROS production inhibition
Protocol: as §4, §5
2′,7′-Dichlorofluorescein diacetate (DCFH-DA) and thrombin were purchased from Sigma-Aldrich/Merck Millipore. DMSO solutions of 10–22 were diluted in saline immediately before each experiment. ROS production was quantified by DCFH-DA, a ROS-sensitive probe that yields, upon oxidation, the fluorescent adduct DCF that is trapped inside the cells. Briefly, washed platelets (1.0 × 10^8/mL), pre-incubated with saline solutions of 10–22 for 15 min at 37 °C, were stimulated by 0.1 U/mL thrombin. Incubation was stopped by cooling samples in an ice bath, and then samples were immediately analyzed in a Merck Millipore Bioscience Guava easyCyte flow cytometer (Merk Millipore, Burlington, MA, USA). The reported IC50 values represent the molar concentration of the compounds able to inhibit 50% of the maximal aggregation induced by the agonist and are calculated as the percentage inhibition of the maximal aggregation measured in the presence of the agent compared with the measure in a control sample containing saline, carried out under the same conditions. The IC50 values were extrapolated from nonlinear regression analysis of concentration–response curves (three points) using MS Excel software (Microsoft 365 suite). Each IC50 value is the mean of six independent experiments.

[12] = DPPH radical-scavenging activity; type: physicochemical; parameters: AA (%), percentage of antioxidant activity: concentration or dose not given beside the values; conditions: mean ± SD, n = 2
Protocol: The antioxidant activity of the representative compounds of the two series (namely, acylhydrazones 10b, 11a, 11d, 12d, 13d, and amides 14, 22) was measured in vitro using the 2,2-diphenyl-1-picrylhydrazyl (DPPH) assay. The results were calculated as Trolox equivalent and expressed as a percentage of antioxidant activity (AA) (Table 3). […] Derivatives 10b and 12d were endowed with the highest antioxidant activity, thus highlighting the relevance of both pyrazole N1 and acylhydrazone substituents on compounds’ radical scavenging properties.
Compounds 10b, 11a, 11d, 12d, 13d, 14, and 22 (ca. 3 mg) were dissolved in DMSO (1 mL), and then 100 µL of this solution was mixed with 3.9 mL of DPPH methanol solution (65 µM). Absorbance was measured at 517 nm after reacting for 30 min in the dark. The linear calibration curve was obtained using Trolox standards (ranging between 20 and 200 mg/L, R^2 = 0.9955). The result was calculated as Trolox equivalent in mg/L, and the percentage of antioxidant activity (AA%) was calculated from the ratio of decreasing absorbance of sample solution (A0 − As) to absorbance of blank DPPH solution (A0), as expressed in Equation (1). (1) AA%=A0−As/A0×100
All analyses were carried out in duplicate (n = 2), and values are given as means ± standard deviation (SD).

IC50 [10] [µM]	IC50 [11] [µM]	melting point [°C]	Structure (SMILES)	activity at 10 µM [1] [%]	Mean growth percentage at 10 µM [2] [%]	Mean growth percentage at 10 µM [3] [%]	Mean growth percentage at 10 µM [4] [%]	activity at 10 µM [5] [%]	mean growth percentage (cell growth remaining vs control) at 10 µM [6] [%]	Mean growth percentage at 10 µM [7] [%]	Mean growth percentage at 10 µM [8] [%]	Mean Growth Percentage [9] [%]	AA (%), percentage of antioxidant activity [12]	DPPH (%) [12] [%]
94 ± 7	104 ± 4	–	COc1ccc(/C=N/NC(=O)c2c(N)n[nH]c2Nc2ccccc2)cc1OC [10b, (E)-3-amino-N′-(3,4-dimethoxybenzylidene)-5-(phenylamino)-1H-pyrazole-4-carbohydrazide]	91.1	115	100	91.6	105	95.3	94.5	114	107.36	76.45% and 76.45 ± 0.39%	23.55 ± 0.39
890 ± 19	182 ± 11	183 to 186	COc1ccc(/C=N/NC(=O)c2c(N)nn(C)c2Nc2ccccc2)cc1OCc1ccccc1 [11d, (E)-3-amino-N′-(3-(benzyloxy)-4-methoxybenzylidene)-1-methyl-5-(phenylamino)-1H-pyrazole-4-carbohydrazide]	101	111	98.6	90.2	95.2	82.9	89	103	99.22	15.53 ± 0.24%	84.47 ± 0.24
433 ± 16	171 ± 9	–	COc1ccc(/C=N/NC(=O)c2c(Nc3ccccc3)nn(C)c2N)cc1OCc1ccccc1 [12d, (E)-5-amino-N′-(3-(benzyloxy)-4-methoxybenzylidene)-1-methyl-3-(phenylamino)-1H-pyrazole-4-carbohydrazide]	102	105	94.1	90.6	85.7	85.2	80.8	106	102.79	69.10 ± 0.39%	30.90 ± 0.39
437 ± 25	405 ± 29	170 to 173	COc1ccc(/C=N/NC(=O)c2c(Nc3ccccc3)nn(CC(O)c3ccccc3)c2N)cc1OCc1ccccc1 (stereo not drawn) [13d, (E)-5-amino-N′-(3-(benzyloxy)-4-methoxybenzylidene)-1-(2-hydroxy-2-phenylethyl)-3-(phenylamino)-1H-pyrazole-4-carbohydrazide]	90.4	120	93.8	97.9	96.7	108	93.9	112	95.39	56.29 ± 1.18%	43.71 ± 1.18
301 ± 24	289 ± 27	158 to 160	CCOC(=O)c1c(NC(=O)c2c(OC)cccc2OC)nn(C)c1Nc1ccccc1 [compound 20, Ethyl 3-(2,6-dimethoxybenzamido)-1-methyl-5-(phenylamino)-1H-pyrazole-4-carboxylate]	70.8	108	124	106	111	92.1	83.6	84.4	64.71	–	–
278 ± 27	262 ± 13	186 to 187	CCOC(=O)c1c(NC(=O)c2ccc(OC)c(OC)c2)nn(C)c1Nc1ccccc1 [compound 21, Ethyl 3-(3,4-dimethoxybenzamido)-1-methyl-5-(phenylamino)-1H-pyrazole-4-carboxylate]	112	97.9	149	107	108	90.3	84.6	90.2	85.88	–	–
